Reference: patent US8367659B2, “Oxazinyl isoflavonoid compounds, medicaments and use” (Marshall Edwards, Inc., priority 2007, dated 2013)
Like-named read-outs stand apart in the source and are kept apart here.

Experiments:
E-selectin = assay: TNFα-induced E-selectin expression in human arterial endothelial cells (ELISA); format: cell-based
Description: Inhibition of TNFα-stimulated endothelial cell activation by compounds was assessed by measuring surface expression of cell adhesion molecules with an ELISA method. Human arterial endothelial cells (HAEC) in growth medium (Cell Applications Inc.) were seeded into 96-well plates at a density of 10,000 cells per well. Plates were incubated overnight at 37° C. in a humidified incubator to allow for cells to become confluent. On the morning of the experiment, TNFα (10 μl, 2 ng/ml) was added to each well, which contained 100 μl of medium. Compounds were diluted in DMSO-containing medium (2.5% DMSO) to give a compound concentration of 100 and 300 μM. Compounds were added to wells so that final concentrations were 10 and 30 μM. DMSO-containing medium alone was added to zero concentration control wells. All samples were measured in quadruplicate (4 wells per treatment).
After incubation with compound, medium was removed and cells were probed with either non-specific IgG or specific mouse antibodies against E-selectin, ICAM or VCAM (BD Biosciences—0.1 μg in 100 μL buffered saline with 10% heat-inactivated human serum). Adhesion molecule expression was detected by addition of sheep anti-mouse antibody/horseradish peroxidase conjugate. […] Optical density was measured at 405 nm with an ELISA reader (Titertek Multiscan, Flow Laboratories). […]

NCI-H460 = assay: Anti-cancer activity, NCI-H460 large cell lung cancer cells (MTT); format: cell-based; settings: Homo sapiens, NCI-H460, 120 h, 5 days, read-out: IC50 μM, NCI-H460 Lung (NSCLC)
MM200 = assay: Anti-cancer activity, MM200 melanoma cells (MTT); format: cell-based; settings: 120 h; 5 days, MTT
HT29 = assay: Anti-cancer activity, HT-29 colon adenocarcinoma cells (MTT); format: cell-based; settings: Homo sapiens, HT-29, 120 h, 5 days, read-out: IC50 μM, HT29 Colorectal
[1] = system: neonatal foreskin fibroblasts (NFF); assay: Toxicity to normal cells, neonatal foreskin fibroblasts; format: cell-based; settings: Fibroblast
Description: IC50 values were determined for each cell line. Cells were seeded in 96-well plates at an appropriate cell density as determined from growth kinetics analysis and cultured for 5 days in the absence and presence of the test compounds. Cell proliferation was assessed after the addition of 20 μl of 3-4,5 dimethylthiazol-2,5-diphenyl tetrazolium bromide (MTT, 2.5 mg/ml in PBS, Sigma) for 3-4 hrs at 37° C. according to manufacturer's instructions. IC50 values were calculated from semi-log plots of % of control proliferation on the y-axis against log dose on the x-axis.
The neonatal foreskin fibroblasts (NFF) were a gift from Dr. Peter Parsons (Queensland Institute of Medical Research). Rabbit kidney (RK-13) cells were obtained from Miller Whalley (Macquarie University). Both cell lines were cultured in RPMI supplemented with 10% FCS(CSL, Australia), penicillin (100 U/ml), streptomycin ([…]), L-glutamine (2 mM) and sodium bicarbonate (1.2 g/L), and cultured at 37° C. in a humidified atmosphere of 5% CO2. IC50 values were determined as described above.

AA-induced ear oedema = assay: Arachidonic acid (AA)-induced ear swelling in mice; format: in vivo, BALB/c mice; settings: 25 mg/kg i/p; 1 h post-AA application
Description: Groups of 5-6 female BALB/c mice (ARC, WA, Australia), weighing 15-21 g were injected intraperitoneally (i/p) with test compound at 25 mg/kg delivered in polyethylene glycol (PEG) 400: phosphate buffered saline (PBS) 1:1 or ethanol: propanediol: PBS 4:9:7 either 30 min prior to or immediately before the inflammogen was applied to the ears. Mice were anaesthetised using isoflurane and baseline thickness of both ears was measured using a spring micrometer. Each mouse received a total of 20 μL of either AA in ethanol (50 mg/ml or 200 mg/ml) or PMA in either ethanol or acetone (0.2 mg/ml) applied to the inner and outer surfaces of each pinna (i.e. 0.5 mg or 2 mg AA or 2 μg PMA per ear). Mice were anaesthetised again to re-measure the ears at 1 h post-AA application and 5 h after PMA. The difference in ear swelling pre- and post-application of inflammogen for each ear was calculated, and the average for the two ears of each mouse taken. The difference in mean swelling of each test group compared to the group given vehicle alone was calculated using a general ANOVA using Dunnett's Multiple Comparison test when multiple compounds were tested in the one experiment or a two-tailed […] t-test when only one compound was tested (Prism 4, Graphpad Software). The data has been presented graphically as the mean percentage inhibition of oedema, calculated as: […]. Results

[2] = system: A7r5 rat aortic smooth muscle cells; assay: Proliferation of A7r5 rat aortic smooth muscle cells; format: cell-based; settings: A7R5, 72 h, three days, read-out: IC50, inhibition of proliferation in A7r5 cells
Description: The effect of test compounds on human umbilical vein smooth muscle cells (HUVSMC), was examined. Cells, tissue explants from a neonate (HRI—passage 2), were seeded into 96 well plates at 1×10^3 cells per well, and allowed to attach for 24 hours. They were then washed twice and incubated in medium without foetal calf serum (FCS) for 24-48 hours to serum-starve them. Test compounds were prepared in medium without FCS and added to the plates and incubated for one hour. Medium with FCS was added to give a final concentration of 10% and the plates incubated for 4-5 days until the controls were just confluent.
The effect of test compounds on rat aortic smooth muscle cell line (A7r5) and another cell line from the media of rat aorta (A10) was examined. The methodology was the same as for HUVSMC, except that the cells were treated with compound for three days.

[3] = normal, non-transformed cells, read-out: IC50 μM, NFF Fibroblast
[4] = read-out: toxicity to normal fibroblast cell line / NFFs (IC50)

IC50 (NCI-H460) [µM] | IC50 (MM200) [µM] | IC50 (HT29) [µM] | SMILES | inhibition of E-selectin expression (E-selectin; TNFα-stimulated HAEC, 4 hrs, FIG. 18) [%] | IC50 [1, 3] [µM] | IC50 [1, 4] [µM] | % Change compared with vehicle (AA-induced ear oedema) [%] | Change in ear thickness (mean ± SD, × 0.01 mm) (AA-induced ear oedema) [× 0.01 mm] | IC50 [2] [µM] | effect on TNFα-induced E-selectin expression (E-selectin; HAEC, 10 μM found most appropriate for comparing)
4.61 | 6.1 ± 1.6 | 20.6 ± 2.1 | Oc1ccc(C2=Cc3cc4c(cc3OC2)OCN(Cc2ccccc2)C4)cc1 [Compound 1, 4-(3-Benzyl-2,3,4,8-tetrahydrochromeno[6,7-e][1,3]oxazin-7-yl)phenol] | > 50 | 15.1 | ~15 | −18 | 20 ± 0.9 | 23 | 
8.77 ± 3.7 | 4.76 ± 1.3 | 11.8 ± 0.7 | CC(c1ccccc1)N1COc2cc3c(cc2C1)C=C(c1ccc(O)cc1)CO3 (stereo not drawn) [Compound 2, 4-(3-(1-Phenylethyl)-2,3,4,8-tetrahydrochromeno[6,7-e][1,3]oxazin-7-yl)phenol] |  | 33.2 | > 30 | −39 | 15.9 ± 4.2 |  | 
 |  |  | Oc1cccc(C2=Cc3ccc(O)cc3OC2)c1 [Compound 37-DHE, 3′,7-dihydroxy-isoflav-3-ene, reference compound] |  |  |  |  |  | 45 | less pronounced
